In patent US7135477B2, “Heterocyclic compounds which inhibit leukocyte adhesion mediated by α4 integrins” (Elan Pharmaceuticals, Inc., priority 2002, dated 2006):

Assay: Cassette dosing and serum analysis for determination of bioavailability
Format: in vivo, rat
Conditions: male Sprague Dawley rats, oral cassette of 6 compounds as sodium salts, total dose 10 mg/kg, plasma at 4, 8 and 12 h, linear trapezoidal rule
Procedure: Cassette Dosing and Serum Analysis for Determination of Bioavailability
The cassette included 5 test articles and a standard compound, for a total dose of 10 mg/kg. Each compound/test article was converted to the sodium salt with equimolar 1 N NaOH and dissolved in water at 2 mg/mL. The cassette was prepared by mixing equal volumes of each of the six solutions. The cassette dosing solution was mixed well and then the pH was adjusted to 7.5–9. The dosing solution was prepared the day before the study and stirred overnight at room temperature.
Male Sprague Dawley (SD) rats from Charles River Laboratories, 6–8 weeks old were used in this screen. Rats were quarantined for at least one day and had continuous access to food and water. On the night before the administration of the cassette, the rats were fasted for approximately 16 h.
Four SD rats were assigned in each cassette. A single dose of the dosing solution was administered orally to each rat. The dosing volume (5 mL/kg) and time were recorded and rats were fed 2 h after dosing.
Blood samples were collected via cardiac puncture at the following time points: 4 h, 8 h and 12 h. Immediately prior to blood collection, rats were anesthetized with CO2 gas within 10–20 seconds. After the 12-h samples were collected, the rats were euthanized via CO2 asphyxiation followed by cervical dislocation.
Blood samples were kept in heparinized microtainer tubes under sub-ambient temperature (4° C.) before they were processed. Blood samples were centrifuged (10000 rpm for 5 minutes) and plasma samples were removed and stored in a −20° C. freezer until analyzed for drug levels. Drug levels in the plasma were analyzed using the following protocol for direct plasma precipitation.
The in vivo plasma samples were prepared in a 1.5 mL 96-well plate, by adding, in order, 100 μL of the test plasma, 150 μL of methanol, followed by vortexing for 10–20 seconds. 150 μL of 0.05 ng/μL of an Internal Standard in acetonitrile were added and vortexed for 30 seconds.
The standard curve samples were prepared in a 1.5 mL 96-well plate, by adding, in order, 100 μL of control mouse plasma, followed by 150 μL of methanol and vortexing for 10–20 seconds. 150 μL of 0.05 ng/μL of an Internal Standard in acetonitrile were added and vortexed for 30 seconds. The samples were spiked with 0–200 ng (10 concentrations) of the compound of interest in 50% methanol to obtain a standard curve range of 0.5 ng/mL–2,000 ng/mL. Again, the sample was vortexed for 30 seconds.
The samples were then spun for 20–30 minutes at 3000 rpm in an Eppendorf microfuge before 80–90% of supernatant was transferred into a clean 96-well plate. The organic solvent was then evaporated until the samples were dry (under N2 at 40° C./30–60 min (ZymarkTurbovap)).
The residue was then dissolved in […] mobile phase (50% CH3OH/0.1% TFA). LC/MS/MS was then run using a PE-Sciex API-3000 triple quadurpole mass spectrometer (SN0749707), Perkin-Elmer, Series200auto-sampler, and shimadzu 10A pump. Acquisition was done with PE-Sciex Analyst (v1.1) and data analysis and quantification were accomplished using PE-Sciex Analyst (v1.1). A 5–50 μL sample volume was injected onto a reverse phase ThermoHypersil DASH-18 column (Keystone 2.0×20 mm, 5 μm, PN: 8823025-701) using a mobile phase of 25% CH3OH, 0.1% TFA-100% CH3OH, 0.1% TFA. The run time was about 8 minutes at a flow rate of about 300 μL/minutes.
The Area Under the Curve (AUC) was calculated using the linear trapezoidal rule from t=0 to the last sampling time tx (see Handbook of Basic Pharmacokinetics, Wolfgang A. Ritschel and Gregory L. Kearns, 5th ed, 1999). AUC^0−tx=S((Cn+Cn+1)/2))·(tn+1−tn)[(μg/mL)h]

| SMILES | AUC (average AUC 0→12 h) |
| --- | --- |
| CCN(CC)c1ncc(N(CC)S(=O)(=O)c2ccc(Cl)cc2)c(N[C@@H](Cc2ccc(OC(=O)N3CCCC3)cc2)C(=O)O)n1 [Example 1, N-(2-[N′,N′-diethylamino]-5-[N″-(4-chlorophenylsulfonyl)-N″-ethylamino]pyrimidin-4-yl)-4′-(pyrrolidin-1-ylcarbonyloxy)-L-phenylalanine] | 14.798 (μg/mL)h |
| CCN(CC)c1ncc(N(CC)S(=O)(=O)c2ccc(F)cc2)c(N[C@@H](Cc2ccc(OC(=O)N3CCCC3)cc2)C(=O)O)n1 [Example 2, N-(2-[N′,N′-diethylamino]-5-[N″-(4-fluorophenylsulfonyl)-N″-ethylamino]pyrimidin-4-yl)-4′-(pyrrolidin 1-ylcarbonyloxy)-L-phenylalanine] | 15.971 (μg/mL)h |
| CCN(CC)c1ncc(N(C)S(=O)(=O)c2ccc(F)cc2)c(N[C@@H](Cc2ccc(OC(=O)N3CCCC3)cc2)C(=O)O)n1 [Example 3, N-(2-[N′,N′-diethylamino]-5-[N″-(4-fluorophenylsulfonyl)-N″-methylamino]pyrimidin-4-yl)-4′-(pyrrolidin-1-ylcarbonyloxy)-L-phenylalanine] | 22.271 (μg/mL)h |
| CCN(CC)c1ncc(N(C)S(=O)(=O)c2ccc(Cl)cc2)c(N[C@@H](Cc2ccc(OC(=O)N3CCCC3)cc2)C(=O)O)n1 [Example 4] | 13.829 (μg/mL)h |
| CCN(CC)c1ncc(N(C)S(=O)(=O)c2ccc(F)cc2)c(N[C@@H](Cc2ccc(OC(=O)N3CCCCC3)cc2)C(=O)O)n1 [Example 5, N-(2-[N′,N′-diethylamino]-5-[N″-(4-fluorophenylsulfonyl)-N″-methylamino]pyrimidin-4-yl)-4′-(piperidin-1-ylcarbonyloxy)-L-phenylalanine] | 2.1654 (μg/mL)h |
| CCN(CC)c1ncc(N(CC)S(=O)(=O)c2ccc(F)cc2)c(N[C@@H](Cc2ccc(OC(=O)N3CCCCC3)cc2)C(=O)O)n1 [Example 6, N-(2-[N′,N′-diethylamino]-5-[N″-(4-fluorophenylsulfonyl)-N″-ethylamino]pyrimidin-4-yl)-4′-(piperidin-1-ylcarbonyloxy)-L-phenylalanine] | 0.5125 (μg/mL)h |
| CCN(CC)c1ncc(N(CC)S(=O)(=O)c2ccc(F)cc2)c(N[C@@H](Cc2ccc(OC(=O)N3CCC3)cc2)C(=O)O)n1 [Example 7, N-(2-[N′,N′-diethylamino]-5-[N″-(4-fluorophenylsulfonyl)-N″-ethylamino]pyrimidin-4-yl)-4-(azetidin-1-ylcarbonyloxy)-L-phenylalanine] | 0.8979 (μg/mL)h |
| CCN(CC)c1ncc(N(C)S(=O)(=O)c2ccc(F)cc2)c(N[C@@H](Cc2ccc(OC(=O)N3CCC3)cc2)C(=O)O)n1 [Example 8, N-(2-[N′,N′-diethylamino]-5-[N″-(4-fluorophenylsulfonyl)-N″-methylamino]pyrimidin-4-yl)-4′-(azetidin-1-ylcarbonyloxy)-L-phenylalanine] | 2.4082 (μg/mL)h |
| CCN(CC)c1ncc(N(C)S(=O)(=O)c2ccc(Cl)cc2)c(N[C@@H](Cc2ccc(OC(=O)N3CCC3)cc2)C(=O)O)n1 [Example 9, N-(2-[N′,N′-diethylamino]-5-[N″-(4-chlorophenylsulfonyl)-N″-methylamino]pyrimidin-4-yl)-4′-(azetidin-1-ylcarbonyloxy)-L-phenylalanine] | 2.0774 (μg/mL)h |
| CCN(CC)c1ncc(N(CC)S(=O)(=O)c2ccc(Cl)cc2)c(N[C@@H](Cc2ccc(OC(=O)N3CCC3)cc2)C(=O)O)n1 [Example 10, N-(2-[N′,N′-diethylamino]-5-[N″-(4-chlorophenylsulfonyl)-N″-ethylamino]pyrimidin-4-yl)-4′-(azetidin-1-ylcarbonyloxy)-L-phenylalanine] | 2.1113 (μg/mL)h |
| CCN(CC)c1ncc(N(C)S(=O)(=O)c2ccc(F)cc2F)c(N[C@@H](Cc2ccc(OC(=O)N3CCCC3)cc2)C(=O)O)n1 [Example 11, N-(2-[N′,N′-diethylamino]-5-[N″-(2,4-difluorophenylsulfonyl)-N″-methylamino]pyrimidin-4-yl)-4′-(pyrrolidin-1-ylcarbonyloxy)-L-phenylalanine] | 14.818 (μg/mL)h |
| CCN(CC)c1ncc(N(CC)S(=O)(=O)c2ccc(F)cc2F)c(N[C@@H](Cc2ccc(OC(=O)N3CCCC3)cc2)C(=O)O)n1 [Example 12, N-(2-[N′,N′-diethylamino]-5-[N″-(2,4-difluorophenylsulfonyl)-N″-ethylamino]pyrimidin-4-yl)-4′-(pyrrolidin-1-ylcarbonyloxy)-L-phenylalanine] | 4.7816 (μg/mL)h |

Now from value to compound:

| AUC (average AUC 0→12 h) | SMILES |
| --- | --- |
| 1.283 (μg/mL)h | CCN(CC)c1ncc(N(C)S(=O)(=O)c2ccc(F)cc2F)c(N[C@@H](Cc2ccc(OC(=O)N3CCC3)cc2)C(=O)O)n1 [Example 13, N-(2-[N′,N′-diethylamino]-5-[N″-(2,4-difluorophenylsulfonyl)-N″-methylamino]pyrimidin-4-yl)-4′-(azetidin-1-ylcarbonyloxy)-L-phenylalanine] |
| 0.3566 (μg/mL)h | CCN(CC)c1ncc(N(CC)S(=O)(=O)c2ccc(F)cc2F)c(N[C@@H](Cc2ccc(OC(=O)N3CCC3)cc2)C(=O)O)n1 [Example 14, N-(2-[N′N′-diethylamino]-5-[N″-(2,4-difluorophenylsulfonyl)-N″ethylamino]pyrimidin-4-yl)-4′-(azetidin-1-ylcarbonyloxy)-L-phenylalanine] |
| 90.317 (μg/mL)h | C#CCN(c1cnc(N(CC)CC)nc1N[C@@H](Cc1ccc(OC(=O)N2CCCC2)cc1)C(=O)O)S(=O)(=O)c1ccc(F)cc1 [Example 15, N-(2-[N′,N′-diethylamino]-5-[N″-(4-fluorophenylsulfonyl)-N″-propargylamino]pyrimidin4-yl)-4′-(pyrrolidin-1-ylcarbonyloxy)-L-phenylalanine] |
| 23.808 (μg/mL)h | C#CCN(c1cnc(N(CC)CC)nc1N[C@@H](Cc1ccc(OC(=O)N2CCCC2)cc1)C(=O)O)S(=O)(=O)c1ccc(F)cc1F [Example 16, N-(2-[N′,N′-diethylamino]-5-[N″-(2,4-difluorophenylsulfonyl)-N″-propargylamino]pyrimidin-4-yl)-4′-(pyrrolidin-1-ylcarbonyloxy)-L-phenylalanine] |
| 0.8628 (μg/mL)h | C#CCN(c1cnc(N(CC)CC)nc1N[C@@H](Cc1ccc(OC(=O)N2CCC2)cc1)C(=O)O)S(=O)(=O)c1ccc(F)cc1F [Example 17, N-(2-[N′,N′-diethylamino]-5-[N″-(2,4-difluorophenylsulfonyl)-N″-propargylamino]pyrimidin-4-yl)-4′-(azetidin-1-ylcarbonyloxy)-L-phenylalanine] |
| 4.7528 (μg/mL)h | C#CCN(c1cnc(N(CC)CC)nc1N[C@@H](Cc1ccc(OC(=O)N2CCC2)cc1)C(=O)O)S(=O)(=O)c1ccc(F)cc1 [Example 18, N-(2-[N′,N′-diethylamino]-5-[N″-(4-fluorophenylsulfonyl)-N″-propargylamino]pyrimidin-4-yl)-4′(azetidin-1-ylcarbonyloxy)-L-phenylalanine] |
